This is an account of results in US20050026911A1, “Benzotriazapinone salts and methods for using same” (priority 2003, published 2005).

Test [1] addresses T1, gastrin (CCK2) receptors (Rattus norvegicus, UniProt P30553).
T1 construct: The stomach was excised and flushed with ca. 1 ml of unbuffered physiological saline solution; from tissue; host or cells: isolated whole stomach of immature rats (ca. 21 days old)
T1 sequence (P30553 1-452): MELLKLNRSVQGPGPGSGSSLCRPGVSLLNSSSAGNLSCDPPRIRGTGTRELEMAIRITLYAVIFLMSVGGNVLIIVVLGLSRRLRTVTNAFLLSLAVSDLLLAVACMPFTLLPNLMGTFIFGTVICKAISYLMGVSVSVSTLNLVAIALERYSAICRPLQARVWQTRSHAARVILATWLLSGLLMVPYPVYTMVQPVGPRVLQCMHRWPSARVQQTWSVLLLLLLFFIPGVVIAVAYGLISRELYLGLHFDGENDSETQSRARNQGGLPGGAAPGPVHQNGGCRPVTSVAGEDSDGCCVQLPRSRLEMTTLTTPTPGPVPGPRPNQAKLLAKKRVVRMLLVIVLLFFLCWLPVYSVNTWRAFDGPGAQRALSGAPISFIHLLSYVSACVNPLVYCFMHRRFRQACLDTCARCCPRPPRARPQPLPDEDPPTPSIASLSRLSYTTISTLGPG
Briefly: gastrin (CCK2) antagonist activity in an immature rat stomach assay. The following applies: pentagastrin dose-response curves, acid secretion, read-out: pKB rat stomach (converted). The method, boiled down:
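Stomachs excised from immature rats (33-50 g, ca. 21 days old) were perfused at 1 ml min^−1 with unbuffered O2-gassed saline, with acid output tracked by a pH electrode. After 120 min stabilisation, drug was added to the serosal bath, followed 60 min later by cumulative pentagastrin dose-response curves.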

In test [2] the target is T2, human gastrin (CCK2) receptors (Homo sapiens, UniProt P32239).
T2 construct: amplified by PCR (polymerase chain reaction) from the start codon to the stop codon; expressed in transfected cells
T2 sequence (P32239 1-447): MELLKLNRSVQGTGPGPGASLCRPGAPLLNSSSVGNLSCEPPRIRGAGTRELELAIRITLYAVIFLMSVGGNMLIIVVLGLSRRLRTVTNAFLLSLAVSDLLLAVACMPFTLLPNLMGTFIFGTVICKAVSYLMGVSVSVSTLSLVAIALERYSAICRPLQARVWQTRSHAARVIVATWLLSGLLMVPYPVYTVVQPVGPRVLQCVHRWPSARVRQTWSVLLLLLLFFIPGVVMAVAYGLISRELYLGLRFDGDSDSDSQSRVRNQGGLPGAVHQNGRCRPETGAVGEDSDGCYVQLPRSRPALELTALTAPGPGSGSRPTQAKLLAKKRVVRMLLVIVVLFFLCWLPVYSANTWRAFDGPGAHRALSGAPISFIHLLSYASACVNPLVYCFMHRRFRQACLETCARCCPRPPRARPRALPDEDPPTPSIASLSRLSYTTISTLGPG
The experiment in a line: [125I]-BH-CCK-8S binding at human gastrin (CCK2) receptors cloned into an NIH3T3 cell line. The following applies: for Ki: read-out: pKi ± s.e.mean (converted); for pKi ± s.e.mean: displacement of [125I]-BH-CCK-8S, hCCK2R NIH3T3 clone 7 cell membranes. On the procedure:
NIH3T3 cells from (ECACC) were cultured in Dulbecco's modified Eagle's medium (DMEM) (Invitrogen), containing 2 mM Glutamax I (Invitrogen), 10% heat inactivated newborn calf serum (Invitrogen). Cells (4×10^5) were seeded into 35 mm×10 mm dishes (Corning) and transfected using the Transfast™ reagent (Promega Corp.) according to the manufacturers instructions using 10 μg of the hCCK2R plasmid DNA at a ratio of 1:1 (DNA:Transfast™ reagent). Untransfected cells and cells transfected with vector only were also prepared as controls. After 48 h the cells were trypsinised using standard techniques (Culture of Animal Cells, A Manual of Basic Techniques 4th Ed, R. Ian Freshney) and dilutions were plated on 35 mm×10 mm dishes in media containing 800 μg/ml G-418 (Invitrogen). Cells were selected for 2 weeks until individual, separate colonies appeared. […] Using cloning rings and trypsinisation, according to standard techniques (Culture of Animal Cells, A Manual of Basic Techniques 4th Ed, R. Ian Freshney), individual colonies were picked from plates containing cells transfected with the vector only and cells transfected with the hCCK2R plasmid construct. The cells were expanded and analysed by radioligand binding analysis (see below).
Cultured clone 7 cells were stored as frozen pellets at −70° C. until required. Cell pellets were thawed in CCK2 assay buffer ((mM): 10 Hepes; 130 NaCl; 5 MgCl2; 4.7 KCl; 1 EGTA (pH7.2 at 21° C.) with 0.125 g Bacitracin added to each litre), and homogenised using a Polytron (4×1 s). The resulting membrane preparation was centrifuged at 39,800 g for 15 min at 4° C. Each cell pellet was re-suspended in fresh buffer and re-centrifuged as above. The final pellet was re-suspended by homogenisation (Teflon-in-glass), to the appropriate membrane concentration.
The assays were terminated by rapid filtration through pre-soaked Whatman GF/B filters which were washed (3×3 ml) with ice-cold 50 mM Tris HCl (pH7.4 @ 4° C.). Filters were transferred to plastic gamma counter vials and bound radioactivity determined by counting (1 min) in a Clini-gamma counter.
Saturation data were analysed using the curve-fitting programmes, Radlig and Ligand.
Briefly, dilution and addition of test compounds, radioligand and cell membranes were performed using a Beckman Biomek 2000. The ability of compounds to inhibit the specific binding of to hCCK2 receptors was determined in triplicate over a range of concentrations at half-log intervals. Total and non-specific binding was determined for each compound. Each compound was tested in a minimum of three experiments. Competition data were fitted to the Hill equation using Graph-pad Prism software to obtain estimates of the IC50 (mid-point location parameter) and nH (mid-point slope parameter). Dissociation constants (KI) were determined using the Cheng & Prusoff equation (1973) to correct for the receptor occupancy by the radioligand.
(In general: Loss of bound radioactivity is the signal in a displacement assay; it reports binding, not function.)

The target of test [3] is T1, gastrin (CCK2) receptors. The note with it: rat stomach assay; Kalindjian et al., J. Med. Chem. 1994; cited from earlier work.
The next test concerns the target T3, CCK2 receptor (Rattus norvegicus, UniProt P30553).
T3 construct: host or cells: rat cortical membranes
T3 sequence (P30553 1-452): T1 sequence (P30553 1-452)
The note with it: rat cortical membranes; Nishida et al. 1994; cited from earlier work.

Take `O=C(CN1N=C(C2CCCCC2)c2ccccc2N(CC(=O)C2CCCC2)C1=O)Nc1cccc(C(=O)O)c1` [Example 22, 3-{2-[5-Cyclohexyl-1-(2-cyclopentyl-2-oxo-ethyl)-2-oxo-1,2-dihydro-3H-1,3,4-benzotriazepin-3-yl]-acetylamino}-benzoic acid]: the Kb at gastrin (CCK2) receptors [1] is 1.86 nM. Moreover, the Ki in test [2] is 0.355 nM.
With `O=C(O)Cc1cccc(NC(=O)CN2N=C(C3CCCCC3)c3ccccc3N(CC(=O)C3CCCC3)C2=O)c1` [Example 56, (3-{2-[5-Cyclohexy-1-(2-cyclopentyl-2-oxo-ethyl)-2-oxo-1,2-dihydro-3H-1,3,4-benzotriazepin-3-yl]-acetylamino}-phenyl)-acetic acid], the Kb at gastrin (CCK2) receptors [1] is 0.741 nM. The Ki in test [2] was 0.162 nM.
With `O=C(O)CSc1cccc(NC(=O)CN2N=C(C3CCCCC3)c3ccccc3N(CC(=O)C3CCCC3)C2=O)c1` [Example 58, (3-{2-[5-Cyclohexyl-1-(2-cyclopentyl-2-oxo-ethyl)-2-oxo-1,2-dihydro-3H-1,3,4-benzotriazepin-3-yl]-acetylamino}-phenylsulfanyl)-acetic acid], the Kb at gastrin (CCK2) receptors [1] was 1.48 nM. Besides, the “pKi ± s.e.mean” value in test [2] is reported as 9.48 ± 0.08.
For the molecule `CC(C)(C)C(=O)CN1C(=O)N(CC(=O)Nc2cccc(-c3nc(=O)o[nH]3)c2)N=C(C2CCCCC2)c2ccccc21` [Example 59, 2-[5-Cyclohexyl-1-(3,3-dimethyl-2-oxo-butyl)-2-oxo-1,2-dihydro-3H-1,3,4-benzotriazepin-3-yl]-N-[3-(5-oxo-Z5-dihydro-[1,2,4]oxadiazol-3-yl)-phenyl]-acetamide], the Kb at gastrin (CCK2) receptors [1] is 9.55 nM. Moreover, the Ki in test [2] was 0.219 nM.
The matching figures for `O=C(CN1N=C(C2CCCCC2)c2ccccc2N(CC(=O)C2CCCC2)C1=O)Nc1cccc(-c2nc(=O)o[nH]2)c1` [Example 121, 2-[5-Cyclohexyl-1-(2-cyclopentyl-2-oxo-ethyl)-2-oxo-1,2-dihydro-3H-1,3,4-benzotriazepin-3-yl]-N-[3-(5-oxo-Z 5-dihydro-[1,2,4]oxadiazol-3-yl)-phenyl]-acetamide]: 0.295 nM and 0.11 nM.
Turning to `O=C(O)CCc1cccc(NC(=O)CN2N=C(C3CCCCC3)c3ccccc3N(CC(=O)C3CCCC3)C2=O)c1` [Example 128, 3-(3-{2-[5-Cyclohexyl-1-(2-cyclopentyl-2-oxo-ethyl)-2-oxo-1,2-dihydro-3H-1,3,4-benzotriazepin-3-yl]-acetylamino}-phenyl)-propionic acid], the Kb at gastrin (CCK2) receptors [1] was 1.23 nM. Further, the Ki in test [2] is 0.204 nM.
For `CC(C)(C)C(=O)CN1C(=O)N(CC(=O)Nc2cccc(-c3cccc(C(=O)O)c3)c2)N=C(C2CCCCC2)c2ccccc21` [Example 151, 3′-{2-[5-Cyclohexyl-1-(3,3-dimethyl-2-oxo-butyl)-2-oxo-1,2-dihydro-3H-1,3,4-benzotriazepin-3-yl]-acetylamino}-biphenyl-3-carboxylic acid], the Kb on gastrin (CCK2) receptors [1] is 11.5 nM.
Turning to `C=C(CN1C(=O)N(CC(=O)Nc2cccc(CC(=O)O)c2)N=C(C2CCCCC2)c2ccccc21)C(C)(C)C` [Example 152, (3-{2-[1-(2-tert-Butyl-allyl)-5-cyclohexyl-2-oxo-1,2-dihydro-3H-1,3,4-benzotriazepin-3-yl]-acetylamino}-phenyl)-acetic acid], on gastrin (CCK2) receptors [1], the Kb is 50.1 nM.
As to `CC(C)(C)C(=O)CN1C(=O)N(CC(=O)Nc2cccc(-c3ccccc3C(=O)O)c2)N=C(C2CCCCC2)c2ccccc21` [Example 154, 3′-{2-[5-Cyclohexyl-1-(3,3-dimethyl-2-oxo-butyl)-2-oxo-1,2-dihydro-3H-1,3,4-benzotriazepin-3-yl]-acetylamino}-biphenyl-2-carboxylic acid], at gastrin (CCK2) receptors [1], the Kb was 3.24 nM.
Still for that read-out and setting: the result for `CC(=O)N/C(=C\c1cccc(NC(=O)CN2N=C(C3CCCCC3)c3ccccc3N(CC(=O)C(C)(C)C)C2=O)c1)C(=O)O` [Example 155, 2-Acetylamino-3-(3-{2-[5-cyclohexyl-1-(3,3-dimethyl-2-oxo-butyl)-2-oxo-1,2-dihydro-3H-1,3,4-benzotriazepin-3-yl]-acetylamino}-phenyl)-acrylic acid] reads 70.8 nM.
On to `CC(C)(C)C(=O)CN1C(=O)N(CC(=O)Nc2cccc(-c3ccc(C(=O)O)s3)c2)N=C(C2CCCCC2)c2ccccc21` [Example 157, 5-(3-{2-[5-Cyclohexyl-1-(3,3-dimethyl-2-oxo-butyl)-2-oxo-1,2-dihydro-3H-1,3,4-benzotriazepin-3-yl]-acetylamino}-phenyl)-thiophene-2-carboxylic acid], for which the Kb on gastrin (CCK2) receptors [1] is 7.76 nM.
`O=C(O)CCCc1cccc(NC(=O)CN2N=C(C3CCCCC3)c3ccccc3N(CC(=O)C3CCCC3)C2=O)c1` [Example 159]: the Kb on gastrin (CCK2) receptors [1] was 1.26 nM.
Take `CN1C(=O)N(CC(=O)Nc2ccccc2)[N+]([O-])=C(C2CCCCC2)c2ccccc21` [Example 160, 2-(5-Cyclohexyl-1-methyl-2-oxo-4-oxy-1,2-dihydro-3H-1,3,4-benzotriazepin-3-yl)-N-phenyl-acetamide]: the Kb at gastrin (CCK2) receptors [1] is 2.82 nM. For the same molecule, in test [2], the Ki is 3240 nM.
With `Cc1cccc(NC(=O)N[C@@H]2N=C(c3ccccc3)c3ccccc3N(C)C2=O)c1` [L-365,260], the “affinity pKB for the CCK2 receptor” value at gastrin (CCK2) receptors [3] was 7.61±0.12.
For the molecule `CNc1cccc(NC(=O)N[C@@H]2N=C(c3ccccn3)c3ccccc3N(CC(=O)C(C)(C)C)C2=O)c1` [YF476], the “affinity pKi for the CCK2 receptor” value on CCK2 receptor is 10.17+0.03.
As to `Cc1cccc(NC(=O)N[C@@H]2N=C(c3ccccc3)c3ccccc3N(CC(=O)c3ccccc3C)C2=O)c1` [YM022, reference compound], the “pKi ± s.e.mean” value in test [2] worked out at 10.19 ± 0.03.
